Read-outs that look alike come from different tables or passages of the source.
Columns and labels:
[1] = test system: Pellicle-derived human normal keratinocytes; settings: 48 h
Experimental: Pellicle-derived human normal keratinocytes were inoculated into a 10% (v/v) FBS-containing MEM medium on a 12-well culture plate, at a cell density of 1.9×10^4 cells/well. Thereafter, the cells were pre-cultured for 24 hours according to an ordinary method. […] After completion of the culture, the cells were washed with PBS, and a survival test was then carried out according to a common method using MTT. Specifically, a 0.5 mg/mL MTT solution was added to the culture plate, resulting in a concentration of 500 μL/well, and it was then incubated in an incubator for 2 hours. Thereafter, 1.5 mL of dimethyl sulfoxide was added thereto, and the absorbance at a wavelength of 570 nm was then measured. The obtained absorbance was used as an indicator for the number of surviving cells. The number of surviving cells obtained in the case of not adding an evaluation sample was defined as 100, and the cell survival percentage (%) obtained in the case of adding an evaluation sample was obtained.

matrix metalloprotease 9 = test: Suppression of production of matrix metalloprotease 9 on epidermis, TGF β1 or β2 induction, ELISA of culture supernatant; type: cell-based, human; settings: keratinocytes, TGF β1 or β2 5 ng/ml, 0.45 μg/ml, 48 hours
Experimental: Thereafter, the medium was exchanged with a test medium which had been prepared by adding TGF (transforming growth factor) β1 or β2 which is known to be released as a matrix metalloprotease 9 production promoting factor from cells upon UV irradiation, to a 1% (v/v) FBS-containing MEM medium to a final concentration of 5 ng/ml, so as to produce a matrix metalloprotease 9 induction test system. […] Specifically, the concentration of a grape extract was set at 100 μg/ml, and the concentration of a Salacia plant extract (the present invention) was set at 100 μg/ml. These test substances were each added to a test medium, and the medium was then exchanged with a fresh one. Thereafter, culture was carried out for 48 hours. After completion of the culture, a culture supernatant was recovered. The recovered supernatant was assayed according to the ELISA method with Matrix Metalloprotease-9, Human, Assay (GE Healthcare, RPN2614). Measurement was carried out in accordance with protocols provided by the distributer, and the value at a wavelength of 630 nm was measured using a wavelength-tunable microplate reader, Sunrise Rainbow Thermo (SUNRISE) and was then quantified. […]

Row | Compound | cell survival percentage ([1]; 0.15 μg/ml) [%] | cell survival percentage ([1]; 0.45 μg/ml) [%] | effect of suppressing the production of matrix metalloprotease 9 (MMP9 protein expression level) (matrix metalloprotease 9)
1 | CC1=C(/C=C/C(C)=C/C=C/C(C)=C/C(=O)O)C(C)(C)CCC1 [retinoic acid] | ≥ 70 | – | –
2 | C[C@H]1[C@H](C)CC[C@]2(C(=O)O)CC[C@]3(C)C(=CC[C@@H]4[C@@]5(C)CC[C@H](O)C(C)(C)[C@@H]5CC[C@]43C)[C@H]12 [ursolic acid] | – | ≥ 70 | did not have the effect of suppressing the production of matrix metalloprotease 9
